Results reported in patent US5415869A, “Taxol formulation” (The Research Foundation of State University of New York, priority 1993, dated 1995).
Where two headings read alike, the source gives them in different places.

How the values were obtained:
[1] = system: 9L rate gliosarcoma; experiment: Cytostatic activity in vitro, 9L; format: cell-based, rat; details: 0.1% DMSO vs drug dissolved directly in serum-containing growth medium
Source text: (§1) FIG. 7 is a plot of cell lines versus IC50 which compares the growth-inhibitory properties of taxol/liposomes to those of free taxol. Cells were placed at a density of 2×10^4 /ml in multiwell plates and allowed to adhere overnight. Triplicate wells were exposed to various concentration of taxol, either added as liposomes (solid bar), as a 100× concentrated stock in DMSO (stippled bar), or absorbed to serum proteins (hatched bar) in the absence of organic solvent. […] Experiments were repeated at least twice. Cell lines are as follows: Colon-26: murine colon carcinoma; B16: murine melanoma; B16F10: highly-metastatic variant of B16 murine melanoma; L1210: murine leukemia; 9L: rat gliosarcoma; A12la, Hcy-lb, and A90: human ovarian tumor cell lines.

[2] = system: A121a, a human ovarian tumor line; experiment: Cytostatic activity in vitro, A121a; format: cell-based; details: 72 hr
Source text: as §1

[3] = system: Colon-26 (C-26), a murine colon tumor model; experiment: Antitumor activity in four doses, s.c. Colon-26; format: in vivo, BALB/c mice; details: 4 i.v. doses
Experimental: Subcutaneous Colon-26 tumors were initiated. When the tumor was measurable (day 7), intravenous treatment was initiated and was repeated on days 8, 12, and 13 (as indicated by the filled circles along the abscissa). Untreated controls received injections of saline or Diluent 12 (diluted 1:3) without taxol (panel A). Treatment with liposome-based taxol formulations consisted of 20, 30, or 40 mg/kg doses of the following: taxol, and, PG, and PC multilamellar vesicles ("MLV") (B), taxol, PG, and PC SUV (C), or taxol, PEG-DPPE, and PC SUV (D). Alternatively, free taxol in Diluent 12 (diluted 1:3 with saline), was administered at doses of 10, 20, or 30 mg/kg (E). […] For humane reasons, animals were sacrificed when tumor volume exceeded 2000mm^3.
(§3) In all experiments, the tumor volume of each animal was measured frequently, and the data was subjected to statistical analysis using an BMDP 1L program. The median time required for the tumor to reach 1500 mm^3 was determined for each treatment group (as indicated by the insert). […]
Subcutaneous tumors on the left flank were initiated by injection of 10^6 viable cells in a volume of 0.1 ml. […] The dose per mouse was adjusted on the basis of its weight, determined at the time of treatment. […] Animal weight and tumor volume was measured five times weekly until the tumor volume reached 2000 mm^3, at which time animals were sacrificed for humane reasons. […]

[4] = system: C-26, a murine colon tumor line; experiment: Cytostatic activity in vitro, C-26; format: cell-based
Source text: as §1

[5] = system: metastatic breast cancer; details: phase II, pretreated patients; cited from earlier work
[6] = system: human tumor lines; experiment: Cytostatic activity in vitro, human tumor lines; format: cell-based; details: human tumor lines more sensitive than C-26
Source text: as §1

[7] = system: tumor cell lines; experiment: Cytostatic activity in vitro, variety of tumor cell lines; format: cell-based; details: across tumor cell lines
Source text: as §1

[8] = system: A90 human ovarian tumor; experiment: Cytostatic activity in vitro, A90; format: cell-based; details: 0.1% DMSO vs drug dissolved directly in serum-containing growth medium
Source text: as §1

[9] = system: Colon-26 (C-26), a murine colon tumor model; experiment: Antitumor activity in nine doses, s.c. Colon-26
Experimental: FIGS. 3A-C show plots of mean tumor size versus days after tumor implantation which indicates the antitumor effect of nine doses of free- or liposomal taxol on Colon-26 tumors. Subcutaneous Colon-26 tumors were initiated. When the tumor was measurable (day 8), treatment was initiated. Animals were dosed 3 times weekly, and treatment was given for 3 weeks, as indicated by the filled circle along the abscissa. Untreated controls received injections of saline or Diluent 12 (diluted 1:3) without taxol (panel A). Treatment with liposome-based taxol formulations consisted of 10, 40, or 60 mg/kg doses with taxol, PG, and PC SUV (B). Alternatively, free taxol in Diluent 12 (diluted 1:3 with saline), was administered at doses of 10, 20, or 30 mg/kg (C). […] Each treatment group consisted of ten animals. For humane reasons, animals were sacrificed when tumor volume exceeded 2000 mm^3.
In all experiments, the tumor volume of each animal was measured frequently, and the data was subjected to statistical analysis using an BMDP 1L program. The median time required for the tumor to reach 1500 mm^3 was determined for each treatment group (as indicated by the insert).
The viability of cells was >80% by trypan blue exclusion.
Subcutaneous tumors on the left flank were initiated by injection of 10^6 viable cells in a volume of 0.1 ml. Mice were then randomized into various treatment groups and numbered. The dose per mouse was adjusted on the basis of its weight, determined at the time of treatment. Treatment was started 7 or 8 days after tumor implantation, and consisted of i.v. injections through the tail vein. Buffer or Diluent 12 without taxol were used as control treatments. Animal weight and tumor volume was measured five times weekly until the tumor volume reached 2000 mm^3, at which time animals were sacrificed for humane reasons. Tumor volume was determined by measuring three orthogonal diameters of the tumor, and was calculated as 1/2 of the product of the diameters (Begg, A. C., "Principles and Practices of the Tumor Growth Delay Assay," Rodent Tumor (R. F. Kallman (ed.)), pp. 114-121, New York:Pergammon Press, (1987), which is hereby incorporated by reference). The data was analyzed for statistical significance using the BMDP 1L program (BMDP Statistical Software Inc.; Los Angeles, Calif.).

[10] = Maximum Tolerated Dose / toxicity in healthy mice; format: in vivo; details: mouse, in vivo, iv
Experimental: (§2) The Maximum Tolerated Dose ("MTD") for taxol-liposome formulations administered via the intravenous route was determined in healthy BALB/c female mice. Survey experiments to define the MTD were performed with two animals per group. Doses were escalated in 2-fold increments, starting at 5 mg/kg. Drug effects were determined by close observation of weight changes and survival. The highest non-lethal dose of taxol causing >10% weight loss within one week of cessation of dosing was defined as the MTD. Animals showing weight loss exceeding 20% were sacrificed, as changes of this magnitude often indicate lethal toxicity (E. Mayhew, unpublished observations). After completing the survey experiments, the approximate MTD was refined further using 3 groups of 8 mice.

[11] = system: healthy BALB/c female mice; experiment: Maximum Tolerated Dose / toxicity in healthy mice; format: in vivo; details: i.v., single dose
Experimental: as §2

[12] = system: advanced and refractory ovarian cancer; details: phase II, heavily-pretreated patients; cited from earlier work
[13] = system: Colon-26 (C-26), a murine colon tumor model; experiment: Antitumor activity in one dose, s.c. Colon-26; format: in vivo, BALB/c mice
Experimental: Subcutaneous Colon-26 tumors were initiated and checked daily. When the tumor was measurable (day 8), a single intravenous bolus dose of taxol was given, either in Cremophor EL®/ethanol (Diluent 12) or in liposomes (indicated by the filled circle along the abscissa). Untreated controls received injections of equivalent volumes of saline or Diluent 12 (diluted 1:3) without taxol (panel A). […]
as §3
Subcutaneous tumors on the left flank were initiated by injection of 10^6 viable cells in a volume of 0.1 ml. […] The dose per mouse was adjusted on the basis of its weight, determined at the time of treatment. […] Animal weight and tumor volume was measured five times weekly until the tumor volume reached 2000 mm^3, at which time animals were sacrificed for humane reasons.

[14] = free taxol 20 mg/kg (cumulative 180 mg/kg)

SMILES: CC(=O)O[C@H]1C(=O)[C@@]2(C)[C@H]([C@H](OC(=O)c3ccccc3)[C@]3(O)C[C@H](OC(=O)[C@H](O)[C@@H](NC(=O)c4ccccc4)c4ccccc4)C(C)=C1C3(C)C)[C@]1(OC(C)=O)CO[C@@H]1C[C@@H]2O [taxol]
- enhancement of free taxol activity by DMSO [1]: approximately 8 fold
- IC50 [2]: 1.5 ± 0.7 µM
- effect on tumor growth ([3]; days 7, 8, 12, 13, free taxol 10, 20, 30, liposomes 20, 30, 40 mg/kg per injection): showed no effect on tumor progression
- tumor growth delay, statistical significance (BMDP 1L) ([3]; vs buffer or vehicle controls): no significant delay in tumor growth at the dose levels tested, compared to buffer or vehicle controls (p>0.05)
- effect of DMSO on cytostatic activity ([4]; C-26): not affected by DMSO
- IC50 ([4]; Mus musculus, C-26, 72 hr): 90 ± 10 µM
- overall response rate [5]: 56%
- sensitivity to taxol relative to C-26 [6]: at least 10 fold
- variation of sensitivity to free taxol [7]: ~100 fold
- enhancement of free taxol activity by DMSO [8]: approximately 8 fold
- effect on tumor progression ([9]; 9 doses, any dose (10, 20, 30 mg/kg per injection)): gave no delay in tumor progression at any dose
- tumor growth delay, statistical significance (BMDP 1L) ([9]; 9 doses, time to reach 1500 mm^3): No dose of free taxol, up to and including lethal concentrations, had a significant effect on tumor progression
- effect on tumor progression [9, 14]: no effect was observed on tumor progression
- survival [9, 14]: most animals survived
- tolerability of individual injections ([9]; free taxol 30 mg/kg): tolerated as individual injections
- lethality ([9]; free taxol 30 mg/kg per injection): cumulatively lethal to all animals by day 21
- MTD ([10]; owing to the toxicity of Diluent 12, read-out: dose of free taxol that could be given as a single injection): < 35 mg/kg
- MTD ([10]; single dose, read-out: MTD, single dose): ~30 mg/kg
- MTD, single dose [11]: 30 mg/kg
- response rate [12]: 30%
- effect on tumor growth ([13]; single i.v. dose on day 8, free taxol 15, 25, 30 mg/kg, liposomes 25, 35, 45 mg/kg, vs controls): showed no effect on tumor growth
- tumor growth delay, statistical significance (BMDP 1L) ([13]; single i.v. dose, time to reach 1500 mm^3): no significant delay in tumor growth compared to vehicle or buffer controls (p.0.05)
